Measurements published in patent US20120131687A1 (priority 2008, published 2012).

Key:
cotton aphid seizure D2 [1] = molecular target: T1, cotton aphid seizure D2 (Aphis gossypii, UniProt A0A9P0IRJ5, DEL620-651/K982T, form not given); assay: Electrophysiological analysis by two-electrode voltage clamp (TEVC) method using Xenopus laevis oocyte; format: cell-based; settings: read-out: IC50 on cotton aphid seizure D2, protocol IV
Source text: Regarding four kinds of cotton aphid seizure splice variants (D1, D2, E1, E2), a gene optimal for producing a gene-recombinant nematode was selected by electrophysiological analysis by the two-electrode voltage clamp method (TEVC method) using an oocyte of Xenopus laevis.
In order to continuously maintain circulation and cleaning of water, female Xenopus laevis was reared in a water bath equipped with an air pump and a filtration device. For Xenopus laevis, a laboratory rearing line was purchased from NASCO (Fort Atkinson, Wis., USA), and adapted to a dry sample, and used in an experiment. Xenopus laevis was reared in tap water retained at a water temperature of 18° C., and a light/dark cycle of each 12 hours was artificially given. Xenopus laevis was anesthetized using a 2 g/l tolycaine aqueous solution, and subsequently cooled with an ice. […]
Using an amplifier TEC-03X manufactured by npi electronics (Tamm, Germany), and software Cellworks, an electrophysiological measurement was performed by the two-electrode voltage clamp method. Experimental data was recorded at room temperature (20 to 25° C.). […]
An activity of a compound was measured using protocol IV by the following procedure. […]
At each test concentration, an amplitude of a current waveform in last three times of continuous pulses was averaged, and a calculated current value was used for calculating an inhibition degree. […]

Aphis gossypii = assay: Pesticidal activity test on artificial feed; format: in vivo; settings: 50 ppm in artificial feed, six days, controlling value of 30% or more = active
Protocol: Then, according to the same manner as that of the method described in Handbook of Insect Rearing Vol. 1 (Elsevier Science Publishers 1985) pp. 35 to pp. 36 except that a test compound dissolved in DMSO to a final concentration of 50 ppm was added at 0.5% volume of the artificial feed, and components were mixed, Aphis gossypii was reared. […] Controlling value(%)={1−(Cb×Tai)/(Cai×Tb)}×100 Letters in the equation represent the following meanings. Cb: Number of surviving worms before treatment in non-treated section Cai: Number of surviving worms at observation in non-treated section Tb: Number of surviving worms before treatment in treated section Tai: Number of surviving worms at observation in treated section

[2] = molecular target: nematode functionally expressing cotton aphid seizure (Aphis gossypii, UniProt A0A9P0IRJ5, DEL620-651/K982T, form not given); assay: Feeding behavior activity (calcein AM intake) of recombinant nematode UG2346 functionally expressing cotton aphid seizure; format: in vivo; settings: read-out: Activity to inhibit feeding behavior of nematode functionally expressing cotton aphid seizure (IC50), 0.03-100 μM
Protocol: In the pharynx of a gene-altered nematode, change in electric activity in cotton aphid seizure influences on an action of the pharynx, that is, intake of food. Therefore, the ability to change an activity of cotton aphid seizure can be measured as the ability to change intake of food, of the gene-recombinant nematode.
Intake of food of the nematode was measured by a method of adding a fluorescent dye precursor to a medium. Specifically, since the fluorescent dye precursor orally taken by the nematode is enzymatically converted into a fluorescent dye in the gut, and a fluorescent signal emitted by the gene-recombinant nematode is increased, intake of food of the nematode can be measured as a fluorescent signal emitted by the nematode.
For measuring the activity to change a feeding behavior activity of a nematode expressing cotton aphid seizure in a functional form, a fluorescent dye precursor was added to a liquid medium containing the nematode expressing cotton aphid seizure in a functional form, and intake of the fluorescent dye precursor orally ingested by the nematode was detected as a fluorescent signal emitted by the nematode. When intake of the fluorescent dye precursor was defined as a feeding behavior activity, an influence of a test substance on a feeding behavior activity was assessed as an influence, on an activity of cotton aphid seizure. […]

cotton aphid seizure D2 [3] = molecular target: T1, cotton aphid seizure D2; assay: Whole cell patch clamp method using CHO cell expressing cotton aphid seizure D2; format: cell-based; settings: 30 μM clofilium
Protocol: Using a CHO cell expressing cotton aphid seizure D2, an activity of a voltage-gated potassium channel was measured by a whole cell patch clamp method.
According to a general tissue culturing procedure, pGBB036 produced in Example 5 was transiently introduced into the CHO cell. In order to confirm that gene introduction is successful, a GFP gene which is a fluorescent marker was simultaneously introduced into the CHO cell. A ratio of pGBB036 and the marker gene was 10:1. It was possible to simply identify the cell for which gene introduction was successful with an incident-light fluorescence microscope. After cultured for 24 hours, the gene-introduced cell was dispensed, frozen, and immediately cryopreserved at −150° C. On the day before implementation of an electrophysiological experiment, the cryopreserved cell was suspended in a fresh medium again, and the cell was seeded on a cover glass having a diameter of 12 mm which was spread in a petri dish. The petri dish was retained at a temperature of 37° C. under the condition of CO2 at a 5% concentration. […]
Recording by the whole cell patch clamp method was implemented on one CHO cell. […] Recorded signals were all amplified with an amplifier PC-501A manufactured by Warner Instruments (Hamden, Conn., USA) and, thereafter, was digitalized at 10 kHz. […]

cotton aphid seizure D2 [4] = molecular target: T1, cotton aphid seizure D2; assay: Electropharyngeogram of recombinant nematode UG2242 expressing cotton aphid seizure D2; format: in vivo
Protocol: By recording a electropharyngeogram using UG2242 which is a transient transformed line, and UG2346 which is a stable transformed line, it was confirmed that the introduced cotton aphid seizure gene was expressed in a functional form.
An imago of a nematode reared at 20° C. was prepared. Using Dent's saline (composition in mM; D-glucose 10 mM, HEPES 10 mM, NaCl 140 mM, KCl 6 mM, CaCl2 3 mM, MgCl2 1 mM, pH 7.4) containing 20 mM serotonin promoting pumping as a chamber internal solution, the nematode was placed into the chamber. Aspiration was performed until the Dent's saline which is a chamber internal solution was contacted with an electrode in a micropipette. After mild aspiration, a head of the nematode was inserted into a tip of a pipette for recording. Data was obtained with an amplifier (Multiclamp 700-A, Axon instruments) and an A/D converter (Digidata 1322A, Axon instruments).

nematode = settings: Drinking Assay, WO 01/88532; cited from earlier work

T1 sequence (A0A9P0IRJ5 entry or part of it DEL620-651/K982T, form open): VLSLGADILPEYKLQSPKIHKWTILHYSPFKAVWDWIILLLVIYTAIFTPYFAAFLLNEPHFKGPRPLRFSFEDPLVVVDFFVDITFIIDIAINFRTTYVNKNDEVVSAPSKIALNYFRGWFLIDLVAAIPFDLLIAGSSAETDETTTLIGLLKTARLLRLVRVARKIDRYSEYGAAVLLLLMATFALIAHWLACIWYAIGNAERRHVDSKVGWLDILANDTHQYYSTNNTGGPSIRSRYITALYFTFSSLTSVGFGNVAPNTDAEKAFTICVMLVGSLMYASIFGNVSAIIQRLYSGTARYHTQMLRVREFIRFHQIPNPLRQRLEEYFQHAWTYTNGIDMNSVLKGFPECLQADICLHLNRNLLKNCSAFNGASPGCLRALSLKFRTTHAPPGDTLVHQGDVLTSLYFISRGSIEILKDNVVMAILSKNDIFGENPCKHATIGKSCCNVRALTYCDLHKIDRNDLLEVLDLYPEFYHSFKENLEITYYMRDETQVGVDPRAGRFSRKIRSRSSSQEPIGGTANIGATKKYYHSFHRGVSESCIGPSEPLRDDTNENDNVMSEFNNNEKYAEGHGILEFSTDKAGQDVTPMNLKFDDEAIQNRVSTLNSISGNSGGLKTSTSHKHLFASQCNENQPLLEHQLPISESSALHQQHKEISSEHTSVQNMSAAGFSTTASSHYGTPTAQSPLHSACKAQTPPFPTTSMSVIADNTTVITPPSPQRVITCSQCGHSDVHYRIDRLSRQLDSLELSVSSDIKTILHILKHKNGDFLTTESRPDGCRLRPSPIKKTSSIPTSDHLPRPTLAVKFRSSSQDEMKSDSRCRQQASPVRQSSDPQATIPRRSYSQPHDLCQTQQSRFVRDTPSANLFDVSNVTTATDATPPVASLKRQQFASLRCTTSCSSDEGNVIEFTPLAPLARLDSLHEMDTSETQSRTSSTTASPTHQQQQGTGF
Sequence of nematode functionally expressing cotton aphid seizure (A0A9P0IRJ5 entry or part of it DEL620-651/K982T, form open): as above

Compound: CN(CCOc1ccc(NS(C)(=O)=O)cc1)CCc1ccc(NS(C)(=O)=O)cc1 [Dofetilide]
- IC50 (cotton aphid seizure D2 [1]): ~23 µM

Compound: CCCCCCC[N+](CC)(CC)CCCCc1ccc(Cl)cc1.Cc1ccc(S(=O)(=O)[O-])cc1 [clofilium]
- Result of determination of insecticidal activity (Aphis gossypii): Having insecticidal activity
- IC50 (cotton aphid seizure D2 [1]): ~1 µM
- IC50 [2]: 4 µM
- activity of a channel inhibited relative to non-treatment (cotton aphid seizure D2 [3]): 86%
- length of a potential waveform in electropharyngeogram (cotton aphid seizure D2 [4]; 5 μM treatment for 5 minutes): significantly increased
- potential waveform in electropharyngeogram (cotton aphid seizure D2 [4]; 5 μM treatment, after 15 minutes): the same potential waveform as that of a wild-type

Compound: CN(C)CCCN1c2ccccc2CCc2ccc(Cl)cc21 [clomipramine]
- food intake by a nematode (nematode): increases food intake

Compound: ivermectin
- food intake by a nematode (nematode): inhibits food intake
